Values joined by “and” are separate entries in the source; they are usually repeats but may differ in a detail not shown here. Identical values can stand only once. Like-named read-outs stand apart in the source and are kept apart here.
Assays:
[1] = CellTiter‐Glo assay (cytotoxicity); conditions: human, WI-26 VA4 cells
Description: (§1) After 24 h, the cells were incubated with various concentrations of compounds for 48 h. The level of ATP as a measure of cell viability was determined using a CellTiter‐Glo® luminescent cell viability assay kit (Promega, G7571) following the manufacturer's instructions.
(§2) WI‐26 VA4 cells were seeded at 1.2 × 10^4 cells/well in 96‐well white plates. After 24 h, the cells were incubated with the indicated concentrations of compounds for 72 h. The viability was determined as described above.

WI‐26 VA4 cells = test: CellTiter‐Glo assay (cytotoxicity); conditions: for activity at 0.003 µM / activity at 0.01 µM / activity at 0.03 µM / activity at 0.1 µM / activity at 0.3 µM / activity at 1 µM / activity at 3 µM / activity at 10 µM / activity at 30 µM / activity at 100 µM: Homo sapiens
Description: as §1, §2

[2] = system: TNT Quick Coupled Transcription/Translation System (luciferase synthesis); type: biochemical

SMILES: Cc1c(Cl)ccc2c1ncn2CC(=O)C[C@H]1NCCC[C@@H]1O [DWN11748]
- CC50 at 72 h [1]: 1440 nM
- activity at 0.003 µM (WI‐26 VA4 cells; WI26VA4, read-out: CellTiter-Glo % of control, 3 nM, Experiment #1, replicates): 99.9%
- activity at 0.003 µM (WI‐26 VA4 cells; WI26VA4, read-out: CellTiter-Glo % of control, 3 nM, Experiment #2, replicates): 90.9%
- activity at 0.01 µM (WI‐26 VA4 cells; WI26VA4, read-out: CellTiter-Glo % of control, 10 nM, Experiment #1, replicates): 90.9%
- activity at 0.01 µM (WI‐26 VA4 cells; WI26VA4, read-out: CellTiter-Glo % of control, 10 nM, Experiment #2, replicates): 98.9%
- activity at 0.03 µM (WI‐26 VA4 cells; WI26VA4, read-out: CellTiter-Glo % of control, 30 nM, Experiment #1, replicates): 91.9%
- activity at 0.03 µM (WI‐26 VA4 cells; WI26VA4, read-out: CellTiter-Glo % of control, 30 nM, Experiment #2, replicates): 83.2%
- activity at 0.1 µM (WI‐26 VA4 cells; WI26VA4, read-out: CellTiter-Glo % of control, 100 nM, Experiment #1, replicates): 103%
- activity at 0.1 µM (WI‐26 VA4 cells; WI26VA4, read-out: CellTiter-Glo % of control, 100 nM, Experiment #2, replicates): 86%
- activity at 0.3 µM (WI‐26 VA4 cells; WI26VA4, read-out: CellTiter-Glo % of control, 300 nM, Experiment #1, replicates): 83.6%
- activity at 0.3 µM (WI‐26 VA4 cells; WI26VA4, read-out: CellTiter-Glo % of control, 300 nM, Experiment #2, replicates): 68.5%
- activity at 1 µM (WI‐26 VA4 cells; WI26VA4, read-out: CellTiter-Glo % of control, 1000 nM, Experiment #1, replicates): 70.6%
- activity at 1 µM (WI‐26 VA4 cells; WI26VA4, read-out: CellTiter-Glo % of control, 1000 nM, Experiment #2, replicates): 67.6%
- activity at 3 µM (WI‐26 VA4 cells; WI26VA4, read-out: CellTiter-Glo % of control, 3000 nM, Experiment #1, replicates): 29.5%
- activity at 3 µM (WI‐26 VA4 cells; WI26VA4, read-out: CellTiter-Glo % of control, 3000 nM, Experiment #2, replicates): 29.4%
- activity at 10 µM (WI‐26 VA4 cells; WI26VA4, read-out: CellTiter-Glo % of control, 10000 nM, Experiment #1, replicates): 30.3%
- activity at 10 µM (WI‐26 VA4 cells; WI26VA4, read-out: CellTiter-Glo % of control, 10000 nM, Experiment #2, replicates): 20.9%
- activity at 30 µM (WI‐26 VA4 cells; WI26VA4, read-out: CellTiter-Glo % of control, 30000 nM, Experiment #1, replicates): 18.8%
- activity at 30 µM (WI‐26 VA4 cells; WI26VA4, read-out: CellTiter-Glo % of control, 30000 nM, Experiment #2, replicates): 10.1%
- activity at 100 µM (WI‐26 VA4 cells; WI26VA4, read-out: CellTiter-Glo % of control, 100000 nM, Experiment #1, replicates): 0.73%
- activity at 100 µM (WI‐26 VA4 cells; WI26VA4, read-out: CellTiter-Glo % of control, 100000 nM, Experiment #2, replicates): 0.58%
- activity at 0.003 µM (WI‐26 VA4 cells; WI26VA4, read-out: CellTiter-Glo % of control, average, 3 nM, average): 102%
- activity at 0.01 µM (WI‐26 VA4 cells; WI26VA4, read-out: CellTiter-Glo % of control, average, 10 nM, average): 96.5%
- activity at 0.03 µM (WI‐26 VA4 cells; WI26VA4, read-out: CellTiter-Glo % of control, average, 30 nM, average): 91.9%
- activity at 0.1 µM (WI‐26 VA4 cells; WI26VA4, read-out: CellTiter-Glo % of control, average, 100 nM, average): 94.6%
- activity at 0.3 µM (WI‐26 VA4 cells; WI26VA4, read-out: CellTiter-Glo % of control, average, 300 nM, average): 75.5%
- activity at 1 µM (WI‐26 VA4 cells; WI26VA4, read-out: CellTiter-Glo % of control, average, 1000 nM, average): 63.5%
- activity at 3 µM (WI‐26 VA4 cells; WI26VA4, read-out: CellTiter-Glo % of control, average, 3000 nM, average): 27.5%
- activity at 10 µM (WI‐26 VA4 cells; WI26VA4, read-out: CellTiter-Glo % of control, average, 10000 nM, average): 25.4%
- activity at 30 µM (WI‐26 VA4 cells; WI26VA4, read-out: CellTiter-Glo % of control, average, 30000 nM, average): 13.7%
- activity at 100 µM (WI‐26 VA4 cells; WI26VA4, read-out: CellTiter-Glo % of control, average, 100000 nM, average): 0.5%
- CellTiter-Glo LogIC50 (best-fit value) (WI‐26 VA4 cells; log(inhibitor) vs. response, variable slope (four parameters), concentration in nM): 3.159
- TNT-luciferase % of control ([2]; 20 nM, Experiment #1, replicates, 0.02 µM): 124.31 % of control and 118.51 % of control and 107.73 % of control
- TNT-luciferase % of control ([2]; 20 nM, Experiment #2, replicates, 0.02 µM): 122.22 % of control and 112.59 % of control and 102.96 % of control
- TNT-luciferase % of control, average ([2]; 20 nM): 114.72 % of control
- TNT-luciferase % of control ([2]; 60 nM, Experiment #1, replicates, 0.06 µM): 118.51 % of control and 116.02 % of control and 106.08 % of control
- TNT-luciferase % of control ([2]; 60 nM, Experiment #2, replicates, 0.06 µM): 117.78 % of control and 113.33 % of control and 103.70 % of control
- TNT-luciferase % of control, average ([2]; 60 nM): 112.57 % of control
- TNT-luciferase % of control ([2]; 200 nM, Experiment #1, replicates, 0.2 µM): 119.34 % of control and 112.71 % of control and 116.02 % of control
- TNT-luciferase % of control ([2]; 200 nM, Experiment #2, replicates, 0.2 µM): 136.30 % of control and 122.22 % of control and 131.11 % of control
- TNT-luciferase % of control, average ([2]; 200 nM): 122.95 % of control
- TNT-luciferase % of control ([2]; 600 nM, Experiment #1, replicates, 0.6 µM): 122.65 % of control and 113.54 % of control and 107.73 % of control
- TNT-luciferase % of control ([2]; 600 nM, Experiment #2, replicates, 0.6 µM): 109.63 % of control and 101.48 % of control and 108.89 % of control
- TNT-luciferase % of control, average ([2]; 600 nM): 110.65 % of control
- TNT-luciferase % of control ([2]; 2000 nM, Experiment #1, replicates, 2 µM): 77.24 % of control and 79.06 % of control and 67.79 % of control
- TNT-luciferase % of control ([2]; 2000 nM, Experiment #2, replicates, 2 µM): 73.56 % of control and 76.30 % of control and 68.37 % of control
- TNT-luciferase % of control, average ([2]; 2000 nM): 73.72 % of control
- TNT-luciferase % of control ([2]; 6000 nM, Experiment #1, replicates, 6 µM): 17.73 % of control and 16.82 % of control and 16.99 % of control
- TNT-luciferase % of control ([2]; 6000 nM, Experiment #2, replicates, 6 µM): 12.15 % of control and 12.07 % of control and 13.19 % of control
- TNT-luciferase % of control, average ([2]; 6000 nM): 14.83 % of control
- TNT-luciferase % of control ([2]; 20000 nM, Experiment #1, replicates, 20 µM): 0.54 % of control and 0.58 % of control and 0.61 % of control

Source: PMC10331583, “Control of fibrosis with enhanced safety via asymmetric inhibition of prolyl‐tRNA synthetase 1” (EMBO Molecular Medicine, 2023)
